Experimental findings from PubChem BioAssay AID1205 (EPA DSSTox, 2008) are described below.

Each structure is given as a SMILES string. Activity calls are given as the source filed them.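 The calls were made as follows: active = tumour findings in long-term animal cancer tests in more than one sex, species or organ; inactive = no tumour finding and more than one negative test.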

This data set can be described thus: DSSTox (CPDBAS) Carcinogenic Potency Database Summary MultiCellCall Results. The conditions noted are these: animal carcinogenicity bioassays, multi-cell call summary. A digest of the protocol:
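Summary call drawn from chronic long-term cancer bioassays in rats, mice, hamsters, dogs and nonhuman primates, using the most positive result per sex-species. Score: multispecies=50, multisex=30, multisite=20, summed for combinations.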

Consider `C=C1C/C(=C/C)C(=O)O[C@@H]2CCN3CC=C(COC(=O)[C@@]1(O)CO)[C@H]23`, for which the outcome is “active; multisite active; multisex active; multispecies active”.

In the case of `Cc1cc(C)nc(NS(=O)(=O)c2ccc(N)cc2)n1`, the outcome is “active; multisex active”.

`C=CCNNCC=C`: the outcome was “active; multisex active”.

`CN[C@@H](C)[C@H](O)c1ccccc1`: the outcome is “inactive; multisex inactive; multispecies inactive”.

For the molecule `CCCCCCCC/C=C\CCCCCCCC(=O)O`, the outcome was “inactive; multisex inactive”.

Regarding `Oc1ccc2ccccc2c1N=Nc1ccccc1`, the outcome was “active; multisex active”.

`C/C=C/C=C/C=O`: the outcome is “active; multisex active; multispecies active”.

As to `O=S(=O)(c1ccc(Cl)cc1)c1cc(Cl)c(Cl)cc1Cl`, the outcome is “inactive; multisex inactive”.

As to `ClC(Cl)Cl`, the outcome was “active; multisite active; multisex active; multispecies active”.

With `O=NN1CCCN(N=O)CC1`, the outcome was “active; multisite active”.

In the case of `CC1CN(N=O)CC(C)O1` (stereo unspecified), the outcome was “active; multisite active; multisex active”.

As to `Clc1ccc(Sc2cc(Cl)c(Cl)cc2Cl)cc1`, the outcome was “inactive; multisex inactive”.

`OC[C@@H](O)[C@H]1O[C@@H]2O[C@H](C(Cl)(Cl)Cl)O[C@@H]2[C@H]1O`: the outcome is “inactive; multisex inactive”.

In the case of `O=[N+]([O-])c1cc([N+](=O)[O-])c(Cl)c(Cl)c1Cl`, the outcome is “inactive; multisex inactive”.

For `CCC1(c2ccccc2)C(=O)N=C(O)NC1=O` (stereo unspecified), the outcome was “active; multisex active; multispecies active”.

In the case of `CCCN(N=O)C(N)=O`, the outcome is “active; multisex active”.

On to `C1C2OC2C2C1C1CC2C2OC12` (stereo unspecified), for which the outcome was “inactive; multisex inactive; multispecies inactive”.

In the case of `Oc1ccc(-c2ccccc2)cc1`, the outcome was “inactive; multisex inactive”.

With `O=C1CCc2ccccc2O1`, the outcome is “active; multisite active; multisex active; multispecies active”.

Regarding `CC[C@H]1OC(=O)[C@H](C)[C@@H](O[C@H]2C[C@@](C)(OC)[C@@H](O)[C@H](C)O2)[C@H](C)[C@@H](O[C@@H]2O[C@H](C)C[C@H](N(C)C)[C@H]2O)[C@](C)(O)C[C@@H](C)C(=O)[C@H](C)[C@@H](O)[C@]1(C)O`, the outcome is “inactive; multisex inactive; multispecies inactive”.

Regarding `CC(=O)Nc1ccc2c(c1)Cc1cc(NC(C)=O)ccc1-2`, the outcome was “inactive; multispecies inactive”.

With `[C-]1=CC=CC1.[C-]1=CC=CC1.[Cl-].[Cl-].[Ti+4]`, the outcome is “inactive; multisex inactive”.

In the case of `CC(C)(Oc1ccc(C2CC2(Cl)Cl)cc1)C(=O)O` (stereo unspecified), the outcome was “active; multisite active; multisex active; multispecies active”.

For `NC(=O)/C(=C\c1ccc([N+](=O)[O-])o1)c1ccco1`, the outcome was “active; multisite active; multisex active; multispecies active”.

Regarding `Oc1cccc2cccnc12.Oc1cccc2cccnc12.[Cu]`, the outcome was “inactive; multisex inactive”.

As for `CCCCCCCCCCN(C)N=O`, the outcome was “active; multisite active”.

As for `CC(Oc1ccc(Cl)cc1Cl)C(=O)O` (stereo unspecified), the outcome is “inactive; multisex inactive”.

Consider `O=C1CN=C(c2ccccc2)c2cc(Cl)ccc2N1CC1CC1`, for which the outcome is “inactive; multisex inactive; multispecies inactive”.

`S=P(N1CC1)(N1CC1)N1CC1`: the outcome was “active; multisite active; multisex active; multispecies active”.

As to `O=C(Nc1ccc([N+](=O)[O-])cc1Cl)c1cc(Cl)ccc1O`, the outcome is “inactive; multisex inactive; multispecies inactive”.

For the molecule `CC(O)CN(CC(O)CO)N=O` (stereo unspecified), the outcome is “active; multisite active; multispecies active”.

In the case of `OCC(CO)N[C@H]1C[C@](O)(CO)[C@@H](O)[C@H](O)[C@H]1O`, the outcome is “inactive; multisex inactive; multispecies inactive”.

Take `CC(=O)Nc1ccc(S(=O)(=O)O)c2cc(S(=O)(=O)O)c(N=Nc3ccc(N=Nc4ccc(S(=O)(=O)O)cc4)c4ccc(S(=O)(=O)O)cc34)c(O)c12`: the outcome was “inactive; multisex inactive; multispecies inactive”.

Consider `CN(C)CCOC(C)(c1ccccc1)c1ccccn1` (stereo unspecified), for which the outcome is “active; multisite active; multisex active; multispecies active”.

`CC1CN(N=O)C(=O)NC1=O` (stereo unspecified): the outcome is “inactive; multisex inactive”.

In the case of `Cn1c(N)nc2ncc(-c3ccccc3)cc21`, the outcome is “active; multisite active; multisex active; multispecies active”.

As to `O=C1CCCO1`, the outcome is “inactive; multisex inactive; multispecies inactive”.

Consider `OCCN(CCO)CCO`, for which the outcome was “active; multisex active”.

Take `CN(C)C(=S)S`: the outcome was “inactive; multisex inactive”.

As for `Nc1ccc([N+](=O)[O-])cc1N`, the outcome was “inactive; multisex inactive; multispecies inactive”.

In the case of `O=C1C(Cl)=C(Cl)C(=O)C(Cl)=C1Cl`, the outcome was “inactive; multisex inactive”.

As to `O=[N+]([O-])c1ccc2c3c(cccc13)CC2`, the outcome was “active; multisite active; multisex active; multispecies active”.

As to `CNNC`, the outcome is “active; multisite active; multisex active; multispecies active”.

With `CN(CCCC(=O)c1cccnc1)N=O`, the outcome was “active; multisite active”.

`O=NN1CCCCC1C(=O)O` (stereo unspecified): the outcome was “inactive; multisex inactive”.

Take `COc1ccc(N)cc1N`: the outcome is “active; multisite active; multisex active; multispecies active”.

With `O=C(O)CCC(=O)O`, the outcome is “inactive; multisex inactive”.

For `O=C1NS(=O)(=O)c2ccccc21`, the outcome was “inactive; multisex inactive; multispecies inactive”.

Take `CC(=O)Nc1ccc(OCC(O)CNC(C)C)cc1` (stereo unspecified): the outcome was “inactive; multisex inactive; multispecies inactive”.

In the case of `CCNc1nc(Cl)nc(NC(C)C)n1`, the outcome was “active; multisite active; multisex active”.

On to `Nc1ccc2ccccc2c1S(=O)(=O)O`, for which the outcome is “inactive; multisex inactive”.

In the case of `ClCC(Cl)CCl`, the outcome is “active; multisite active; multisex active; multispecies active”.

As to `CC(C)NCC(O)c1ccc2ccccc2c1` (stereo unspecified), the outcome is “inactive; multisex inactive”.

`O=C(O)CCCC/C=C(\c1ccccc1)c1cccnc1`: the outcome is “inactive; multisex inactive; multispecies inactive”.

Turning to `CN(C)N`, the outcome is “active; multisite active; multisex active; multispecies active”.

Turning to `Cc1cccc2ccccc12`, the outcome was “inactive; multisex inactive”.

Turning to `S=C1NCCN1`, the outcome is “active; multisite active; multisex active; multispecies active”.

`Nc1ccc(N=Nc2ccccc2)c(N)n1`: the outcome is “active; multisite active; multisex active; multispecies active”.

For the molecule `CCCCN(N=O)C(N)=O`, the outcome was “active; multisite active; multisex active”.

As to `N[C@@H](Cc1cnc[nH]1)C(=O)O`, the outcome was “inactive; multisex inactive”.

Turning to `CCCCC1C(=O)N(c2ccccc2)N(c2ccccc2)C1=O`, the outcome was “active; multisite active; multisex active; multispecies active”.

As for `CCN(CC)C(=O)Nc1ccc(OCC(O)CNC(C)(C)C)c(C(C)=O)c1` (stereo unspecified), the outcome was “inactive; multisex inactive; multispecies inactive”.

In the case of `Cn1cc(C(=O)[C@@H]2CCc3nc[nH]c3C2)c2ccccc21`, the outcome is “inactive; multisex inactive; multispecies inactive”.

For the molecule `CCOP(=S)(OCC)Oc1cc(C)nc(C(C)C)n1`, the outcome is “inactive; multisex inactive; multispecies inactive”.

Turning to `CCCN(CCC)c1c([N+](=O)[O-])cc(C(F)(F)F)cc1[N+](=O)[O-]`, the outcome was “active; multisite active”.

With `CCC[CH2][Sn]([CH2]CCC)([CH2]CCC)[O][Sn]([CH2]CCC)([CH2]CCC)[CH2]CCC`, the outcome is “inactive; multisex inactive”.

Turning to `C=C(C)C#N`, the outcome was “inactive; multisex inactive; multispecies inactive”.

With `CC(=O)Nc1ccc2c(c1)Cc1ccccc1-2`, the outcome was “active; multisite active; multisex active; multispecies active”.

Consider `COc1cc(/C=C/C(=O)CC(=O)/C=C/c2ccc(O)c(OC)c2)ccc1O`, for which the outcome was “inactive; multisex inactive; multispecies inactive”.

For `c1ccc2sc(SN3CCOCC3)nc2c1`, the outcome is “inactive; multisex inactive”.

Consider `Nc1nc(N)c2nc(-c3ccccc3)c(N)nc2n1`, for which the outcome is “active; multisex active”.

For `C/C=C/C=C/C(=O)O`, the outcome is “inactive; multisex inactive; multispecies inactive”.

On to `COC(C(=O)O)c1ccccc1` (stereo unspecified), for which the outcome was “inactive; multisex inactive”.

`O=C(OOC(=O)c1ccccc1)c1ccccc1`: the outcome was “inactive; multispecies inactive”.

For `Nc1ccc(NCCO)c([N+](=O)[O-])c1`, the outcome is “inactive; multisex inactive; multispecies inactive”.

With `CNCCc1ccc(OC(=O)C(C)C)c(OC(=O)C(C)C)c1`, the outcome is “inactive; multisex inactive”.

Consider `O=P(O)(O)O`, for which the outcome is “inactive; multisex inactive”.

Take `CCOC(=O)[C@]1(c2ccccc2)CCC=C[C@H]1N(C)C`: the outcome was “inactive; multisex inactive; multispecies inactive”.

Consider `Clc1c(Cl)c(Cl)c(Cl)c(Cl)c1Cl`, for which the outcome is “active; multisite active; multisex active; multispecies active”.

For `COc1ccc(OC)c(/C=C/c2ccc(N)cc2)c1`, the outcome is “active; multisite active; multispecies active”.

As to `NCCCC(N)(C(=O)O)C(F)F` (stereo unspecified), the outcome was “inactive; multisex inactive”.

Turning to `P`, the outcome was “inactive; multisex inactive”.

Regarding `CC(C)(C)c1cc(CO)cc(C(C)(C)C)c1O`, the outcome is “inactive; multisex inactive”.

Consider `Cc1ccccc1N`, for which the outcome was “active; multisite active; multisex active; multispecies active”.

`N[C@@H](CC(=O)O)C(=O)O`: the outcome is “inactive; multisex inactive”.

With `NNC(=O)c1ccncc1`, the outcome is “active; multisite active; multisex active; multispecies active”.
